Experiments:
monocytes = assay: Induction of IFN-regulated genes and TNFα in monocytes by aPL or Tlr7 agonist; assay type: cell-based, mouse
Protocol: (B) Induction of IFN-regulated genes by aPL. (C) TF and Tnfα mRNA induction by aPL HL5B or HL7G stimulation of CD115+ splenocytes of indicated mice stimulated for 3 hours, as well as early ROS production; mean±SD, n=6; * p<0.0001; one-way ANOVA, Dunnett multiple-comparison test. (D) Live cell imaging of HL5B internalization in monocytes of indicated mouse strains. Bar=5 μm. (E) Live cell imaging of aPL HL5B Fab′2 or IgG colocalization with EPCR using non-inhibitory αEPCR 1489 in human MM1 cells. (F) Internalization of EPCR, FVIIa, and TF in MM1 cells stimulated for 15 minutes similarly required proteases and integrin trafficking. For quantification of internalization, surface staining was quenched with 0.4% trypan blue; mean±SD, n=6. * p<0.0001; one-way ANOVA, Dunnett multiple-comparison test compared to IgG control.
FXa generated by the coagulation initiator TF-FVIIa utilizes the endothelial protein C receptor (EPCR) for protease activated receptor (PAR) 2 cleavage that is specifically required for LPS-induced interferon (IFN) responses (15, 16).

MM1 cells = assay: aPL signaling and internalization in MM1 cells with sphingomyelinase inhibitor; assay type: cell-based, human
Protocol: (A) aPL-mediated TF activation, PS exposure measured by annexin 5 staining, ROS production and TNFα induction as well as (B) aPL internalization in MM1 cells was blocked by sphingomyelinase inhibitor desipramine. Bar=5 μm. (C) aPL-induced ASM activity in MM1 cells is blocked by inhibitors of FXa, thrombin, and PAR1 cleavage. (D) Live cell imaging of surface ASM exposure in MM1 cells after 30 minutes of stimulation with Fab′2 aPL HLSB. Bar=5 μm. (E) ASM activity in unstimulated cell lysates after addition of sEPCR-LBPA (2.504) is blocked by αEPCR 1682. For all ASM activity assays: mean±SD, n=3. * p<0.0003; one-way ANOVA, Dunnett multiple-comparison test. […] (G, H) Thrombosis induction by dual reactive aPL HL7G in the indicated mouse strains or WT mice in presence of indicated αEPCR. (F-H) Quantification of thrombus size 3 hours after aPL injection; median, interquartile range, and range; n=6-11; * p <0.004; one-way ANOVA, Dunnett multiple-comparison test compared to αEPCR 1650. (I, J) Thrombosis induction by aPL HLSB (I) or IgG isolated from age-matched 16 weeks old lupus-prone MRL/lpr and MRL control mice (J) in the indicated mouse strains. Quantification of thrombus size 3 hours after aPL injection; median, interquartile range, and range; (I) n=6-10; * p=0.001; unpaired t-test. (J) n=5; * p=0.0025; two-way ANOVA, Sidak's multiple comparisons test. […]

EPCR^C/S monocytes = assay: Lipid supplementation and aPL signalling in EPCR^C/S monocytes; assay type: cell-based, mouse; conditions: 10 μM
Text: (A) Effect of aPL HL5B, aPL HL7G, and αEPCR antibodies on EPCR-dependent aPC generation on murine microvascular endothelial cells. (B) Effect of anti-mouse EPCR antibodies 1682 and 1650 on Tnfα mRNA induction by aPL HL5B and HL7G; mean±SD, n=6. * p<0.0001; one-way ANOVA, Dunnett multiple-comparison. (C) Effect of αEPCR on aPL HL5B and HL7G internalization in CD115+ splenocytes. Bar=5 μm. (D) Flow cytometry detection of FXa and EPCR on CD115+ spleen monocytes isolated from indicated mouse strains. (E) Effect of pre-treatment with 10 μM LBPA for 10 min on surface binding of αEPCR 1682 and αLBPA 6C4 on indicated monocytes; mean±SD, n=6. * p<0.003; multiple t-tests. (F) Competition of αEPCR 1650 and 1682 with binding of FITC-labelled anti-LBPA antibody 6C4 to mouse CD115+ splenocytes. (G) Competition of αLBPA 6C4 with binding of αEPCR 1682 to mouse monocytes. (H) Effect of LBPA, cardiolipin (CL), and phosphatidylserine (PS) (10 μM) on aPL HLSB signalling in EPCR^C/S monocytes. Induction of TNF after 3 hours is shown; mean±SD, n=6. (I) LBPA loading of purified mouse or human sEPCR evidenced by faster mobility on native gels. (J) Surface plasmon resonance analysis of aPL HLSB binding to purified human sEPCR or sEPCR-LBPA. The affinity calculation was based on a monovalent binding model because no cooperative binding was evident.
(A) TNFα mRNA induction after 2 hours by HLSB is prevented in Alix-deficient trophoblast cells; mean±SD, n=6. * p<0.0001; t-test following Shapiro-Wilk test for normal distribution. (B, C) Proximity ligation assays (PLA) for ASM and EPCR on scrambled control JARs or ALIX−/− cells after 10 minutes of stimulation with HLSB (B) or thrombin (C) with or without LBPA loading. Bar=25 μm. (D) aPL internalization in ALIX deficient JAR cells and signalling in EPCR^C/S monocytes (E) was restored by adding 10 μM LBPA (S,R) but not by other phospholipids. (F) Pregnancy loss was scored at day 15.5 p.c. after injection of aPL HLSB on days 8 and 12. * p<0.02; one-way ANOVA, Dunnett multiple-comparison test. […]

[1] = test system: ALIX^−/− trophoblast cells; assay: aPL HL5B binding to ALIX-deficient trophoblast (JAR) cells after adding phospholipids; assay type: cell-based, human; conditions: 10 μM lipid added
Protocol: (A) TNFα mRNA induction after 2 hours by HLSB is prevented in Alix-deficient trophoblast cells; mean±SD, n=6. * p<0.0001; t-test following Shapiro-Wilk test for normal distribution. (B, C) Proximity ligation assays (PLA) for ASM and EPCR on scrambled control JARs or ALIX−/− cells after 10 minutes of stimulation with HLSB (B) or thrombin (C) with or without LBPA loading. Bar=25 μm. (D) aPL internalization in ALIX deficient JAR cells and signalling in EPCR^C/S monocytes (E) was restored by adding 10 μM LBPA (S,R) but not by other phospholipids. (F) Pregnancy loss was scored at day 15.5 p.c. after injection of aPL HLSB on days 8 and 12. * p<0.02; one-way ANOVA, Dunnett multiple-comparison test. (G) Schematic representation of aPL signalling leading to thrombosis or pregnancy complications.
Human ALIX^−/− trophoblast cells and murine EPCR^C/S monocytes provided tools to compare the species conservation of lipid presentation by EPCR. Only addition of S/R 18:1 LBPA and R/R 18:1 LBPA, but not S/S 18:1 LBPA or semi-S/R LBPA restored aPL HL5B binding to ALIX^−/− trophoblast cells (FIG. 7D) or signaling in EPCR^C/S monocytes (FIG. 7E). Thus, human and mouse EPCR present LBPA with the same selectivity, providing an explanation for the remarkable species cross-reactivity of pathogenic aPL.

## CCOCc1nc2c(N)nc3ccccc3c2n1CC(C)(C)O [R848]
monocytes
  induction of TNFα: upregulated only TNFα

## CNCCCN1c2ccccc2CCc2ccccc21 [desipramine]
MM1 cells
  aPL internalization: blocked
  aPL-mediated TF activation, PS exposure, ROS production and TNFα induction: blocked

## R/R 18:1 LBPA
EPCR^C/S monocytes
  aPL signaling in EPCR^C/S monocytes after adding LBPA isomers: restored
[1]
  aPL HL5B binding to ALIX^−/− trophoblast cells: restored

Reference: patent US20230043394A1, “METHODS FOR DETECTION OF PATHOGENIC ANTIPHOSPHOLIPID ANTIBODIES AND FOR IDENTIFICATION OF INHIBITORS” (UNIVERSITÄTSMEDIZIN DER JOHANNES GUTENBERG-UNIVERSITÄT MAINZ, priority 2019, published 2023)
